Measurements: ChEMBL document CHEMBL5712891, “Inhibition of BET bromodomain-dependent XIAP and FLIP expression sensitizes KRAS-mutated NSCLC to pro-apoptotic agents” (Cell Death Dis, 2016)
Active and inactive are the calls of the source. The calls are words filed in the database; no cut-off is given here.

Tests used:
DV-90 [1] = assay: Induction of cell cycle arrest in human DV-90 cells assessed as accumulation of cells at G0/G1 phase at 0.1 uM for 24 hrs by Click-iT EdU Alexa Fluor 647 flow cytometric assay kit analysis (reference value: 47%); assay type: functional
NCI-H1373 [2] = assay: Induction of apoptosis in human NCI-H1373 cells assessed as late apoptotic cells at 0.5 uM for 24 hrs by annexin V-PI staining based flow cytometric analysis (reference value: 22.3%); assay type: functional
NCI-H460 [3] = assay: Induction of apoptosis in human NCI-H460 cells assessed as late apoptotic cells at 2.5 uM for 24 hrs by annexin V-PI staining based flow cytometric analysis (reference value: 3.7%); assay type: functional
DV-90 [4] = assay: Induction of apoptosis in human DV-90 cells assessed as early apoptotic cells at 0.5 uM for 48 hrs by annexin V-PI staining based flow cytometric analysis (reference value: 1.0%)
DV-90 [5] = assay: Induction of cell cycle arrest in human DV-90 cells assessed as accumulation of cells at G0/G1 phase at 1 uM for 24 hrs by Click-iT EdU Alexa Fluor 647 flow cytometric assay kit analysis (reference value: 45%); assay type: functional
NCI-H1373 [6] = assay: Induction of cell cycle arrest in human NCI-H1373 cells assessed as accumulation of cells at G0/G1 phase at 0.5 uM for 24 hrs by Click-iT EdU Alexa Fluor 647 flow cytometric assay kit analysis (reference value: 48%); assay type: functional
NCI-H1373 [7] = assay: Induction of cell cycle arrest in human NCI-H1373 cells assessed as accumulation of cells at G0/G1 phase at 1 uM for 24 hrs by Click-iT EdU Alexa Fluor 647 flow cytometric assay kit analysis (reference value: 48%); assay type: functional
NCI-H460 [8] = assay: Induction of cell cycle arrest in human NCI-H460 cells assessed as accumulation of cells at S phase at 0.1 uM for 24 hrs by Click-iT EdU Alexa Fluor 647 flow cytometric assay kit analysis (reference value: 54%); assay type: functional
NCI-H460 [9] = assay: Induction of cell cycle arrest in human NCI-H460 cells assessed as accumulation of cells at G0/G1 phase at 0.5 uM for 24 hrs by Click-iT EdU Alexa Fluor 647 flow cytometric assay kit analysis (reference value: 45%); assay type: functional
A549 [10] = assay: Induction of cell cycle arrest in human A549 cells assessed as accumulation of cells at S phase at 1 uM for 24 hrs by Click-iT EdU Alexa Fluor 647 flow cytometric assay kit analysis (reference value: 35%); assay type: functional
A549 [11] = assay: Induction of cell cycle arrest in human A549 cells assessed as accumulation of cells at S phase at 0.5 uM for 24 hrs by Click-iT EdU Alexa Fluor 647 flow cytometric assay kit analysis (reference value: 35%); assay type: functional
A549 [12] = assay: Induction of cell cycle arrest in human A549 cells assessed as accumulation of cells at G0/G1 phase at 0.5 uM for 24 hrs by Click-iT EdU Alexa Fluor 647 flow cytometric assay kit analysis (reference value: 61%); assay type: functional
A549 [13] = assay: Induction of cell cycle arrest in human A549 cells assessed as accumulation of cells at G2/M phase at 0.1 uM for 24 hrs by Click-iT EdU Alexa Fluor 647 flow cytometric assay kit analysis (reference value: 3%); assay type: functional
NCI-H1373 [14] = assay: Induction of cell cycle arrest in human NCI-H1373 cells assessed as accumulation of cells at G0/G1 phase at 1 uM for 24 hrs by Click-iT EdU Alexa Fluor 647 flow cytometric assay kit analysis (reference value: 40%); assay type: functional
NCI-H1373 [15] = assay: Induction of cell cycle arrest in human NCI-H1373 cells assessed as accumulation of cells at G2/M phase at 0.5 uM for 24 hrs by Click-iT EdU Alexa Fluor 647 flow cytometric assay kit analysis (reference value: 13%); assay type: functional
NCI-H1373 [16] = assay: Induction of cell cycle arrest in human NCI-H1373 cells assessed as accumulation of cells at S phase at 0.1 uM for 24 hrs by Click-iT EdU Alexa Fluor 647 flow cytometric assay kit analysis (reference value: 45%); assay type: functional
A549 [17] = assay: Induction of apoptosis in human A549 cells assessed as necrotic cells at 2.5 uM for 24 hrs by annexin V-PI staining based flow cytometric analysis (reference value: 1.3%); assay type: functional
NCI-H1373 [18] = assay: Induction of apoptosis in human NCI-H1373 cells assessed as early apoptotic cells at 2.5 uM for 24 hrs by annexin V-PI staining based flow cytometric analysis (reference value: 0.6%); assay type: functional
NCI-H460 [19] = assay: Induction of apoptosis in human NCI-H460 cells assessed as late apoptotic cells at 2.5 uM for 24 hrs by annexin V-PI staining based flow cytometric analysis (reference value: 3.0%); assay type: functional
LCLC-97TM1 [20] = assay: Downregulation of c-MYC mRNA expression level in human LCLC-97TM1 cells at 0.1 to 1 uM for 24 hrs by qRT-PCR analysis; assay type: functional, cell-based; conditions: dose 0.1-1 µM
DV-90 [21] = assay: Downregulation of XIAP mRNA expression level in human DV-90 cells at 0.1 to 1 uM for 24 hrs by qRT-PCR analysis; assay type: functional, cell-based; conditions: dose 0.1-1 µM
LCLC-97TM1 [22] = assay: Downregulation of XIAP mRNA expression level in human LCLC-97TM1 cells at 0.1 to 1 uM for 24 hrs by qRT-PCR analysis; assay type: functional, cell-based; conditions: dose 0.1-1 µM
NCI-H1792 = assay: Downregulation of XIAP mRNA expression level in human NCI-H1792 cells at 0.1 to 1 uM for 24 hrs by qRT-PCR analysis; assay type: functional, cell-based; conditions: dose 0.1-1 µM
DV-90 [23] = assay: Downregulation of FLIP mRNA expression level in human DV-90 cells at 0.1 to 1 uM for 24 hrs by qRT-PCR analysis; assay type: functional, cell-based; conditions: dose 0.1-1 µM
LCLC-97TM1 [24] = assay: Downregulation of FLIP mRNA expression level in human LCLC-97TM1 cells at 0.1 to 1 uM for 24 hrs by qRT-PCR analysis; assay type: functional, cell-based; conditions: dose 0.1-1 µM
NCI-H2030 = assay: Downregulation of FLIP mRNA expression level in human NCI-H2030 cells at 0.1 to 1 uM for 24 hrs by qRT-PCR analysis; assay type: functional, cell-based; conditions: dose 0.1-1 µM
SK-LU-1 = assay: Downregulation of XIAP protein expression level in human SK-LU-1 cells at 1 uM for 24 hrs by […] analysis; assay type: functional, cell-based
NCI-H441 = assay: Downregulation of XIAP protein expression level in human NCI-H441 cells at 1 uM for 24 hrs by […] analysis; assay type: functional, cell-based
NCI-H2347 = assay: Downregulation of XIAP protein expression level in human NCI-H2347 cells at 1 uM for 24 hrs by […] analysis; assay type: functional, cell-based
NCI-H1373 [25] = assay: Downregulation of c-MYC protein expression level in human NCI-H1373 cells at 1 uM for 24 hrs by […] analysis; assay type: functional, cell-based
NCI-H358 = assay: Antiproliferative activity against human NCI-H358 cells at 500 to 2500 nM in presence of TNF by cell titre glo assay; assay type: functional, cell-based; conditions: dose 500-2500 nM
[26] = Toxicity in SCID mouse xenografted with human A549 cells assessed as body weight loss administered at 50 mg/kg, ip for 28 days relative to control; assay type: organism-based; conditions: in vivo, 672 h, time 28 day

Cc1sc2c(c1C)C(c1ccc(Cl)cc1)=N[C@@H](CC(=O)Nc1ccc(O)cc1)c1nnc(C)n1-2 [BIRABRESIB]
Activity (DV-90 [1]): 50%
Activity (NCI-H1373 [2]): 20.5%
Activity (NCI-H460 [3]): 5.1%
Activity (DV-90 [4]): 2.8%

CCNC(=O)C[C@@H]1N=C(c2ccc(Cl)cc2)c2cc(OC)ccc2-n2c(C)nnc21 [MOLIBRESIB]
Activity (DV-90 [5]): 50%
Activity (NCI-H1373 [6]): 73%
Activity (NCI-H1373 [7]): 76%
Activity (NCI-H460 [8]): 53%
Activity (NCI-H460 [9]): 51%

Cc1sc2c(c1C)C(c1ccc(Cl)cc1)=N[C@@H](CC(=O)OC(C)(C)C)c1nnc(C)n1-2
Activity (A549 [10]): 32%
Activity (A549 [11]): 33%
Activity (A549 [12]): 63%
Activity (A549 [13]): 2%
Activity (NCI-H1373 [14]): 68%
Activity (NCI-H1373 [15]): 22%
Activity (NCI-H1373 [16]): 36%
Activity (A549 [17]): 0.9%
Activity (NCI-H1373 [18]): 2.9%
Activity (NCI-H460 [19]): 5.5%
Activity (LCLC-97TM1 [20]): Active
Activity (DV-90 [21]): Active
Activity (LCLC-97TM1 [22]): Active
Activity (NCI-H1792): Active
Activity (DV-90 [23]): Active
Activity (LCLC-97TM1 [24]): Active
Activity (NCI-H2030): Active
Activity (SK-LU-1): Active
Activity (NCI-H441): Active
Activity (NCI-H2347): Active
Activity (NCI-H1373 [25]): Active
Activity (NCI-H358): Active
Activity [26]: 5%
